From ChEMBL document CHEMBL5325400 (Eur J Med Chem, 2023)
The source made the active and inactive calls. The rule behind the calls is not given here.

Columns and labels:
[1] = Volume of distribution in Sprague-Dawley rat at 1 mg/kg, iv by LC-MS analysis; format: ADME, organism-based; conditions: in vivo
[2] = system: A549; assay: Induction of apoptosis in human A549 cells assessed as necrotic cells at 10 nM incubated for 24 hrs by annexin V-FITC/propidium iodide staining based flow cytometry analysis (reference value: 2.36%); format: functional
[3] = system: A549; assay: Antitumor activity against human A549 cells xenografted in BALB/c mouse assessed as upregulation of cleaved PARP expression in tumor at 10 mg/kg, ip administered every other day for 25 days by Western blotting analysis; format: functional, organism-based; conditions: time 25.0 day
[4] = system: A549; assay: Induction of apoptosis in human A549 cells assessed as late apoptotic cells at 40 nM incubated for 24 hrs by annexin V-FITC/propidium iodide staining based flow cytometry analysis (reference value: 0.37%); format: functional
[5] = system: A549; assay: Induction of apoptosis in human A549 cells assessed as viable cells at 40 nM incubated for 24 hrs by annexin V-FITC/propidium iodide staining based flow cytometry analysis (reference value: 96.44%); format: functional; conditions: read-out: Activity
[6] = system: A549; assay: Antiproliferative activity against human A549 cells expressing lentivirus RNAi VTI-96659 assessed as inhibition of cell growth measured after 48 hrs by MTT assay; format: functional, cell-based
[7] = system: B16-F10; assay: Inhibition of cell migration in mouse B16-F10 cells assessed as total number of cells migrated at 20 nM incubated for 12 hrs by crystal violet staining based transwell assay (reference value: 692 +/- 11); format: functional
[8] = system: A549; assay: Residual cell migration in human A549 cells at 10 nM incubated for 12 hrs by crystal violet staining based transwell assay; conditions: A549, 12 h
[9] = system: A2780/Taxol; assay: Antiproliferative activity against paclitaxel resistant human A2780/Taxol cells assessed as inhibition of cell growth incubated for 48 hrs by MTT assay; format: functional, cell-based
[10] = target: Tubulin (Sus scrofa) (UniProt P02554+P02550); assay: Inhibition of porcine brain tubulin polymerization at 10 uM measured at 1 min interval for 60 mins by fluorescence based analysis
[11] = system: A549; assay: Antitumor activity against human A549 cells xenografted in BALB/c mouse assessed as tumor volume at 10 mg/kg, ip administered every other day for 25 days; format: functional; conditions: time 25 day
[12] = Toxicity in BALB/c mouse xenografted with human A549 cells assessed as change in body weight at 10 mg/kg, ip administered every other day for 25 days; format: organism-based; conditions: in vivo, 600 h, time 25 day
[13] = system: A549; assay: Induction of apoptosis in human A549 cells assessed as early apoptotic cells at 20 nM incubated for 24 hrs by annexin V-FITC/propidium iodide staining based flow cytometry analysis (reference value: 0.84%); format: functional
[14] = system: A549; assay: Inhibition of cell migration in human A549 cells assessed as total number of cells migrated at 40 nM incubated for 12 hrs by crystal violet staining based transwell assay (reference value: 724 +/- 16); format: functional
[15] = system: A549; assay: Antitumor activity against human A549 cells xenografted in BALB/c mouse assessed as reduction in AKT phosphorylation at S473 residue in tumor at 5 to 10 mg/kg, ip administered every other day for 25 days by Western blotting analysis; format: functional, organism-based; conditions: dose 5-10 mg/kg, time 25.0 day
[16] = system: A549; assay: Antitumor activity against human A549 cells xenografted in BALB/c mouse assessed as tumor weight at 5 mg/kg, ip administered every other day for 25 days; format: functional, organism-based; conditions: time 25.0 day
[17] = system: B16-F10; assay: Antiproliferative activity against mouse B16-F10 cells assessed as inhibition of cell growth measured after 48 hrs by MTT assay; format: functional, cell-based; conditions: B16-F10, 48 h
[18] = system: A549; assay: Induction of cell cycle arrest in human A549 cells assessed as accumulation at G1 phase at 10 nM incubated for 24 hrs by PI staining based flow cytometry (Rvb= 65.68%); format: functional
[19] = Toxicity in BALB/c mouse assessed as change in body weight at 10 mg/kg, ip; format: organism-based; conditions: in vivo
[20] = system: A549; assay: Antitumor activity against human A549 cells xenografted in BALB/c mouse assessed as reduction in EGFR phosphorylation at S473 residue in tumor at 5 to 10 mg/kg, ip administered every other day for 25 days by Western blotting analysis; format: functional, organism-based; conditions: dose 5-10 mg/kg, time 25.0 day
[21] = Toxicity in BALB/c nude mouse xenografted with human A549 cells assessed as pathological changes in spleen at 5 to 10 mg/kg, ip administered every other day for 25 days by hematoxylin and eosin staining based microscopic analysis; format: organism-based; conditions: in vivo, 600 h, dose 5-10 mg/kg, time 25 day
[22] = Clearance in Sprague-Dawley rat at 1 mg/kg, iv by LC-MS analysis; format: ADME, organism-based; conditions: in vivo
[23] = system: A549; assay: Antimigratory activity against human A549 cells assessed as inhibition of cell migration at 20 nM and incubated for 12 hrs by scratch wound healing assay (reference value: 29.5 +/- 1.34%); format: functional; parameters: scale not given: the % may be the effect or the level left
[24] = system: A549; assay: Antitumor activity against human A549 cells xenografted in BALB/c mouse assessed as upregulation of cleaved PARP expression in tumor at 5 mg/kg, ip administered every other day for 25 days by Western blotting analysis; format: functional, organism-based; conditions: time 25.0 day
[25] = system: A549; assay: Antitumor activity against human A549 cells xenografted in BALB/c mouse assessed as downregulation of Bcl-2 expression in tumor at 5 mg/kg, ip administered every other day for 25 days by Western blotting analysis; format: functional, organism-based; conditions: time 25.0 day
[26] = system: A549; assay: Residual cell migration in human A549 cells at 20 nM incubated for 12 hrs by crystal violet staining based transwell assay; conditions: A549, 12 h
[27] = system: A549; assay: Induction of cell cycle arrest in human A549 cells assessed as accumulation at G2 phase at 20 nM incubated for 24 hrs by PI staining based flow cytometry (Rvb= 12.49%); format: functional
[28] = Toxicity in BALB/c nude mouse xenografted with human A549 cells assessed as pathological changes in lung at 5 to 10 mg/kg, ip administered every other day for 25 days by hematoxylin and eosin staining based microscopic analysis; format: organism-based; conditions: in vivo, 600 h, dose 5-10 mg/kg, time 25 day
[29] = system: A549; assay: Antitumor activity against human A549 cells xenografted in ip dosed BALB/c mouse assessed as decrease in Ki-67 expression in tumor administered every other day for 25 days by immunohistochemistry analysis; format: functional, organism-based; conditions: dose 10.0 mg/kg, time 25.0 day
[30] = system: A549; assay: Inhibition of cell migration in human A549 cells assessed as total number of cells migrated at 20 nM incubated for 12 hrs by crystal violet staining based transwell assay (reference value: 724 +/- 16); format: functional
[31] = system: A549; assay: Antiproliferative activity against human A549 cells expressing lentivirus RNAi VTI-96660 assessed as inhibition of cell growth measured after 48 hrs by MTT assay; format: functional, cell-based
[32] = system: A549; assay: Inhibition of cell migration in human A549 cells assessed as total number of cells migrated at 10 nM incubated for 12 hrs by crystal violet staining based transwell assay (reference value: 724 +/- 16); format: functional
[33] = system: A549; assay: Induction of apoptosis in human A549 cells assessed as upregulation of Bad protein at 10 to 40 nM measured after 48 hrs by Western blot analysis; format: functional, cell-based; conditions: dose 10-40 nM
[34] = system: B16-F10; assay: Antimigratory activity against mouse B16-F10 cells assessed as inhibition of cell migration at 20 nM and incubated for 12 hrs by scratch wound healing assay (reference value: 81.9 +/- 0.64%); format: functional; parameters: scale not given: the % may be the effect or the level left

Chain of Tubulin (Sus scrofa) (P02550 whole entry, looked up): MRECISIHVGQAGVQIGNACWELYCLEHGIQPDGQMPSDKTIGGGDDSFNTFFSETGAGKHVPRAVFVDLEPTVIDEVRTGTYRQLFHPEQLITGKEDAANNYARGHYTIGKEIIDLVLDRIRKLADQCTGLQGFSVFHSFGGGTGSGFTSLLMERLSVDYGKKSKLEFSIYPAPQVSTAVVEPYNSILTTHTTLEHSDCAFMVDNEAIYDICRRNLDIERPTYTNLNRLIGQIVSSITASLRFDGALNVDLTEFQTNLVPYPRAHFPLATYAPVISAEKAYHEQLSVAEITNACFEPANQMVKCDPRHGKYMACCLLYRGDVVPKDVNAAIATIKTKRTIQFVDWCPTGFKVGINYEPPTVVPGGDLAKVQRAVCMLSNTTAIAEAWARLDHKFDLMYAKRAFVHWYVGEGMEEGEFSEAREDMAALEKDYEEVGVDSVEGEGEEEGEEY
Chain of Tubulin (Sus scrofa) (P02554 whole entry, looked up): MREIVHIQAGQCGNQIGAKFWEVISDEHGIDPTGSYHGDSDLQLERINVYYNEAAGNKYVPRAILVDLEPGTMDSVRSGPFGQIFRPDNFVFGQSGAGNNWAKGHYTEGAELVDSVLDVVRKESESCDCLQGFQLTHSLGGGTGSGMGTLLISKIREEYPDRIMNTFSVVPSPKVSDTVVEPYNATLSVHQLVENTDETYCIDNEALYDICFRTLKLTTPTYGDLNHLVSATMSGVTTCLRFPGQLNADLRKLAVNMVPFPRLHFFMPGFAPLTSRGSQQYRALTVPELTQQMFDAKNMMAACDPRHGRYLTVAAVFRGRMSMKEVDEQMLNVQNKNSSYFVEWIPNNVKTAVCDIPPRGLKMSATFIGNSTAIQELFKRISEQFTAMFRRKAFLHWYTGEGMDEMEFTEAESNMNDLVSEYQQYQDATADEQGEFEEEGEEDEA

Compound: COc1cccc(Nc2cc(Nc3cccc(NC(=O)C4CC4)c3)ncn2)c1
- Vd [1]: 1.3 L/kg
- Activity [2]: 6.5%
- Activity [3]: Active
- Activity [4]: 26.72%
- viability at 0.04 µM [5]: 63.6%
- Activity [6]: Active
- Activity [7]: 319
- level, % of control at 0.01 µM [8]: 70.6%
- IC50 [9]: 132 nM
- inhibition [10]: Active
- Activity [11]: 63.77%
- Activity [12]: Non-Toxic
- Activity [13]: 1.69%
- Activity [14]: 157
- Activity [15]: inactive
- Activity [16]: Active
- IC50 [17]: 3.3 nM
- Activity [18]: 58.47%
- Activity [19]: Non-Toxic
- Activity [20]: inactive
- Activity [21]: Non-Toxic
- clearance [22]: 69.8 mL/min/kg
- Activity [23]: 9.8%
- Activity [24]: Active
- Activity [25]: Active
- level, % of control at 0.02 µM [26]: 56.3%
- Activity [27]: 33.13%
- Activity [28]: Non-Toxic
- Activity [29]: Dose-Dependent Effect
- Activity [30]: 397
- Activity [31]: Active
- Activity [32]: 486
- Activity [33]: Active
- Activity [34]: 39.7%
